# Patent publication US20240315991A1, “USES OF HNF4 ALPHA AGONISTS” (Sanford Burnham Prebys Medical Discovery Institute, priority 2023, published 2024)
# Entries after “also recorded” stand apart in the source; their conditions may differ.
# Key:
# PPARγ mRNA = assay: RT-PCR of mouse liver, PPARγ; type: in vivo; settings: HFD+NCT vs HFD, to the level of mice on normal chow, FIG. 3N
# Experimental: (§1) NCT oral administration. Four-week-old male C57BL/6J (JAX cat #000664) mice were purchased from Jackson laboratory and were maintained in a 12 h light/dark cycle throughout the experiment. Prior to the experiments, mice were acclimated for 2 weeks. Six-week-old mice with similar body weights were randomized to a normal diet (NC), a high fat diet (HFD) (Research Diets, cat #D12492 60 kcal % fat) or HFD containing 4000 ppm NCT (HFD+NCT) (Research Diets, 60 kcal % fat+4000 ppm NCT), which was calculated to provide approximately 400 mg/kg/d NCT. HFD chow containing NCT was made with gray dye to distinguish it from regular HFD chow that had green dye. Mice for each treatment group were placed in separate cages. Equal amounts of fresh chow were provided every week to all mice. Body weight gain and food intake were measured every week for 10 weeks. After 10 weeks of chow treatment, mice were sacrificed for analysis. […]
# RT-PCR. […] Quantitative real time PCR (RT-PCR) analysis was performed using SYBR® Select Master Mix (Applied Biosystems) and an ABI 7900HT thermal cycler (Applied Biosystems, Thermo Fisher Scientific). Ct values were normalized to 18s rRNA and are expressed as fold change over samples from mice fed NC or cultured human hepatocytes without NCT.
# HNF4α = target: T1, HNF4α (Mus musculus, UniProt P49698); assay: HNF4α immunofluorescence of liver sections; type: in vivo; settings: C57BL/6 mice, HFD containing 4000 ppm NCT (approximately 400 mg/kg/d), oral, 10 weeks, vs HFD
# T1 construct: from tissue; host or cells: liver of C57BL/6J mice
# Experimental: as §1, with “Equal amounts of fresh chow were provided every week to all mice.” left out, “weeks.” for “weeks. After 10 weeks of chow treatment, mice were sacrificed for analysis.”
# Immunofluorescence. […] Slides were mounted using fluorescence mounting medium and images were obtained at ×40 magnification using an Olympus IX71 fluorescence microscope. Fluorescence intensity of HNF4α-stained nuclei and VDAC stained mitochondria was calculated using MetaMorph TL software (version 7.6.5.0, Olympus). Fold change was calculated by normalizing to values from mice fed NC.
# C57BL/6 mice were fed normal chow (NC), a high fat diet (HFD), or a high fat diet containing 4000 ppm NCT (HFD+NCT) for 10 weeks. […] The fold change was calculated vs. NC (NC, N=3, HFD and HFD+NCT, N=12). […]
# PPARGC1A(PGC1a) = assay: Western blotting of liver, PPARGC1A(PGC1a); type: in vivo, mouse; settings: HFD+NCT vs HFD, FIGS. 4A-4C
# Experimental: (§2) NCT oral administration. Four-week-old male C57BL/6J (JAX cat #000664) mice were purchased from Jackson laboratory and were maintained in a 12 h light/dark cycle throughout the experiment. Prior to the experiments, mice were acclimated for 2 weeks. Six-week-old mice with similar body weights were randomized to a normal diet (NC), a high fat diet (HFD) (Research Diets, cat #D12492 60 kcal % fat) or HFD containing 4000 ppm NCT (HFD+NCT) (Research Diets, 60 kcal % fat+4000 ppm NCT), which was calculated to provide approximately 400 mg/kg/d NCT. HFD chow containing NCT was made with gray dye to distinguish it from regular HFD chow that had green dye. Mice for each treatment group were placed in separate cages. Equal amounts of fresh chow were provided every week to all mice. Body weight gain and food intake were measured every week for 10 weeks. After 10 weeks of chow treatment, mice were sacrificed for analysis. All animal experiments were approved by the Institutional Animal Care and Use Committee (IACUC) of the Sanford Burnham Prebys Medical Discovery Institute in accordance with national regulations. Sample size was chosen based on the prior study of NCT delivered by IP injection.
# Western blotting. Mouse liver extracts were prepared by incubation in RIPA buffer (Invitrogen) containing protease inhibitors (Calbiochem, SanDiego, CA). Protein was quantified by BCA assay (Thermo Scientific). […]
# [1] = test system: mitochondrial fatty acid oxidation (FAO) activity; assay: Fatty acid oxidation assay in liver lysate; type: in vivo, mouse
# Experimental: as §2
# Fatty acid oxidation assay. FAO in liver lysate was measured according to manufacturer's instructions using a calorimetric assay kit (Cat #E-141, Biomedical Research Service Center, State University of New York, Buffalo, NY).
# Thus, the effect of NCT on FAO appeared to be a secondary rather than primary effect.
# [2] = liver lysate, HFD+NCT vs HFD, 10 weeks
# T1 sequence (P49698 whole entry): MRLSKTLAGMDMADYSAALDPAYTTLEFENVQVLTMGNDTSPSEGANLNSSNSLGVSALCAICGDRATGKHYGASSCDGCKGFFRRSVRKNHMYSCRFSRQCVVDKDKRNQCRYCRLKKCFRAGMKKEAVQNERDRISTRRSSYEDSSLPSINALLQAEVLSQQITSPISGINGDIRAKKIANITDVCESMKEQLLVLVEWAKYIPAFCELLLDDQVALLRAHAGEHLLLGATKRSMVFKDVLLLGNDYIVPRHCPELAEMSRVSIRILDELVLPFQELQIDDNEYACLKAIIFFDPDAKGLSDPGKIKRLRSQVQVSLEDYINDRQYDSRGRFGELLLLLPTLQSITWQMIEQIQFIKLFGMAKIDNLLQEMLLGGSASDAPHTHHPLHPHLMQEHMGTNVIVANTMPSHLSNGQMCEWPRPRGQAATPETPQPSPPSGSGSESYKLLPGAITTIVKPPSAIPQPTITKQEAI
smiles,measurement,setting,value
"O=C(/C=C/c1ccc(O)c(O)c1)NCCc1ccc(O)cc1 [NCT, N-trans caffeoyltyramine]",PPARγ expression in liver,PPARγ mRNA,reduce
same,HNF4α expression in liver (HNF4α fluorescence intensity),HNF4α,reversed
same,PPARGC1A(PGC1a) protein level in mouse liver,PPARGC1A(PGC1a),increase
same,FAO activity in the presence of octanoyl CoA,[1]; [2],increase
same,baseline FAO activity in the absence of octanoyl CoA,[1]; [2],increase
same,overall FAO activity in the assay,[1]; [2],unchanged; also recorded: non-significant
same,fatty acid oxidation,[1]; mice fed HFD containing NCT vs HFD alone,increased
